# Results reported in patent US8946438B2, “Benzamides, production thereof, and use thereof as medicaments” (Boehringer Ingelheim International GmbH, priority 2008, dated 2015).
# Molecular target: p38 MAP-kinase (Homo sapiens, UniProt Q16539)
# Experiment: Enzymatic assay: inhibition of p38 MAP-kinase (phosphorylation of GST-tagged ATF2, chemoluminescence bead readout)
# Assay type: biochemical
# Conditions: inhibitor 1 μM; activated p38 MAP-kinase 1 nM; 4 h preincubation; ATP 100 μM; ATF2 10 nM; read-out: % inhibitory effect at 1 μM
# Outline: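 Activated human p38 MAP-kinase (1 nM) preincubated 4 h at ambient temperature with compound at 1 μM in HEPES pH 7, MgCl2, DTT, Tween20. Then reacted 1 h with GST-ATF2 (10 nM) and ATP (100 μM). Phospho-ATF2 read by bead chemoluminescence at 520-620 nm, given as % inhibition at 1 μM versus kinase-free background.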
# Chain of p38 MAP-kinase (Q16539 whole entry): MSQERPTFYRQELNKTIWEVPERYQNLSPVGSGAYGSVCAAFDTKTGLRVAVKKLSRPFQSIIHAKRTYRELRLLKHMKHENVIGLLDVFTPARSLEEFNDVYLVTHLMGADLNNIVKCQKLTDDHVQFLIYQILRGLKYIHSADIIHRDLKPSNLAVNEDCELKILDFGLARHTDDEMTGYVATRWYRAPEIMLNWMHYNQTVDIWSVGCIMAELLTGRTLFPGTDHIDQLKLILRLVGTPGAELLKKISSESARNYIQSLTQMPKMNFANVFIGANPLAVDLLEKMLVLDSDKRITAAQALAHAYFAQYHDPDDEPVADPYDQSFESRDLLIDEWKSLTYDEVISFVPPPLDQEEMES
row,inhibition at 1 µM [%],Structure (SMILES)
1,99.6,"COc1c(NC(=O)c2ccc(Cl)c(Oc3ccnc(CC4CCN(C)CC4)n3)c2)cc(C(C)(C)C)cc1NS(C)(=O)=O [12(3), N-(5-tert-butyl-3-methanesulphonylamino-2-methoxy-phenyl)-4-chloro-3-[2-(1-methyl-piperidin-4-ylmethyl)-pyrimidin-4-yloxy]-benzamide]"
2,99.6,"COc1c(NC(=O)c2ccc(C)c(Oc3ccnc(CC4CCCN(C)CC4)n3)c2)cc(C(C)(C)C)cc1NS(C)(=O)=O (stereo not drawn) [12(6), N-(5-tert-butyl-3-methanesulphonylamino-2-methoxy-phenyl)-4-methyl-3-[2-(1-methyl-azepan-4-ylmethyl)-pyrimidin-4-yloxy]-benzamide]"
3,99.8,"COc1c(NC(=O)c2ccc(C)c(Oc3cc(CC4CCCN(C)CC4)ncn3)c2)cc(C(C)(C)C)cc1NS(C)(=O)=O (stereo not drawn) [12(7), N-(5-tert-butyl-3-methanesulphonylamino-2-methoxy-phenyl)-4-methyl-3-[6-(1-methyl-azepan-4-ylmethyl)-pyrimidin-4-yloxy]-benzamide]"
4,90.8,"COc1c(NC(=O)c2ccc(C)c(Oc3cc[n+]([O-])cc3)c2)cc(C(C)(C)C)cc1NS(C)(=O)=O [Example 1, N-(5-tert-butyl-3-methanesulphonylamino-2-methoxy-phenyl)-4-methyl-3-(1-oxy-pyridin-4-yloxy)-benzamide]"
5,97.7,"COc1c(NC(=O)c2ccc(C)c(Oc3ccncc3)c2)cc(C(C)(C)C)cc1NS(C)(=O)=O [Example 2, N-(5-tert-butyl-3-methanesulphonylamino-2-methoxy-phenyl)-4-methyl-3-(pyridin-4-yloxy)-benzamide]"
6,98.1,"CNc1nccc(Oc2cc(C(=O)Nc3cc(C(C)(C)C)cc(NS(C)(=O)=O)c3OC)ccc2C)n1 [Example 3, N-(5-tert-butyl-3-methanesulphonylamino-2-methoxy-phenyl)-4-methyl-3-(2-methylamino-pyrimidin-4-yloxy)-benzamide]"
7,97.7,"COc1c(NC(=O)c2ccc(C)c(Oc3ccnc(NCCN4CCCC4)n3)c2)cc(C(C)(C)C)cc1NS(C)(=O)=O [Example 4, N-(5-tert-butyl-3-methanesulphonylamino-2-methoxy-phenyl)-4-methyl-3-[2-(2-pyrrolidin-1-yl-ethylamino)-pyrimidin-4-yloxy]-benzamide]"
8,99,"COc1c(NC(=O)c2ccc(C)c(Oc3ccnc(N4CCNCC4)n3)c2)cc(C(C)(C)C)cc1NS(C)(=O)=O [Example 5, N-(5-tert-butyl-3-methanesulphonylamino-2-methoxy-phenyl)-4-methyl-3-(2-piperazin-1-yl-pyrimidin-4-yloxy)-benzamide x trifluoroacetic acid]"
9,95.6,"CNC(=O)c1cc(Oc2cc(C(=O)Nc3cc(C(C)(C)C)cc(NS(C)(=O)=O)c3OC)ccc2C)ncn1 [Example 7, 6-[5-(5-tert-butyl-3-methanesulphonylamino-2-methoxy-phenylaminocarbonyl)-2-methyl-phenoxy]-pyrimidin-4-carboxylic acid-methylamide]"
10,95,"COc1c(NC(=O)c2ccc(C)c(Oc3cc(CN4CCOCC4)ncn3)c2)cc(C(C)(C)C)cc1NS(C)(=O)=O [Example 8, N-(5-tert-butyl-3-methanesulphonylamino-2-methoxy-phenyl)-4-methyl-3-(6-morpholin-4-ylmethyl-pyrimidin-4-yloxy)-benzamide]"
11,98.4,"COc1c(NC(=O)c2ccc(C)c(Oc3cc(CC4CCN(C)CC4)ncn3)c2)cc(C(C)(C)C)cc1NS(C)(=O)=O [Example 9, N-(5-tert-butyl-3-methanesulphonylamino-2-methoxy-phenyl)-4-methyl-3-[6-(1-methyl-piperidin-4-ylmethyl)-pyrimidin-4-yloxy]-benzamide]"
12,99.2,"COc1c(NC(=O)c2ccc(Cl)c(Oc3cc(NC4CCNCC4)ncn3)c2)cc(C(C)(C)C)cc1NS(C)(=O)=O [Example 11, N-(5-tert-butyl-3-methanesulphonylamino-2-methoxy-phenyl)-4-chloro-3-[6-(piperidin-4-ylamino)-pyrimidin-4-yloxy]-benzamide]"
13,97.5,"COc1c(NC(=O)c2ccc(C)c(Oc3ccnc(CC4CCCN(C)CC4)c3)c2)cc(C(C)(C)C)cc1NS(C)(=O)=O (stereo not drawn) [Example 12, N-(5-tert-butyl-3-methanesulphonylamino-2-methoxy-phenyl)-4-methyl-3-[2-(1-methyl-azepan-4-ylmethyl)-pyridin-4-yloxy]-benzamide]"

# More lines, now with the values behind:
row,Structure (SMILES),inhibition at 1 µM [%]
1,"CCCCC(=O)Nc1cc(C(C)(C)C)cc(NC(=O)c2ccc(C)c(Oc3ccnc(CC4CCNCC4)c3)c2)c1OC [11(2), N-(5-tert-butyl-2-methoxy-3-pentanoylamino-phenyl)-4-methyl-3-(2-piperidin-4-ylmethyl-pyridin-4-yloxy)-benzamide]",95.4
2,"COc1c(NC(=O)c2ccc(C)c(Oc3ccnc(CC4CCNCC4)c3)c2)cc(C(C)(C)C)cc1S(C)(=O)=O [11(3), N-(5-tert-butyl-3-methanesulphonyl-2-methoxy-phenyl)-4-methyl-3-(2-piperidin-4-ylmethyl-pyridin-4-yloxy)-benzamide]",99.5
3,"COc1c(NC(=O)CC(C)C)cc(C(C)(C)C)cc1NC(=O)c1ccc(C)c(Oc2ccnc(CC3CCNCC3)c2)c1 [11(4), N-[5-tert-butyl-2-methoxy-3-(3-methyl-butyrylamino)-phenyl]-4-methyl-3-(2-piperidin-4-ylmethyl-pyridin-4-yloxy)-benzamide]",95.1
4,"COc1c(NC(=O)c2ccc(Cl)c(Oc3cc(CN4CCN(C)CC4)ncn3)c2)cc(C(C)(C)C)cc1NS(C)(=O)=O [12(1), N-(5-tert-butyl-3-methanesulphonylamino-2-methoxy-phenyl)-4-chloro-3-[6-(4-methyl-piperazin-1-ylmethyl)-pyrimidin-4-yloxy]-benzamide]",99.4
5,"COc1c(NC(=O)c2ccc(Cl)c(Oc3cc(CC4CCN(C)CC4)ncn3)c2)cc(C(C)(C)C)cc1NS(C)(=O)=O [12(2), N-(5-tert-butyl-3-methanesulphonylamino-2-methoxy-phenyl)-4-chloro-3-[6-(1-methyl-piperidin-4-ylmethyl)-pyrimidin-4-yloxy]-benzamide]",98.7
6,"COc1c(NC(=O)c2ccc(Cl)c(Oc3ccnc(CN4CCN(C)CC4)c3)c2)cc(C(C)(C)C)cc1NS(C)(=O)=O [12(4), N-(5-tert-butyl-3-methanesulphonylamino-2-methoxy-phenyl)-4-chloro-3-[2-(4-methyl-piperazin-1-ylmethyl)-pyridin-4-yloxy]-benzamide]",99.3
7,"COc1c(NC(=O)c2ccc(Cl)c(Oc3ccnc(CC4CCN(C)CC4)c3)c2)cc(C(C)(C)C)cc1NS(C)(=O)=O [12(5), N-(5-tert-butyl-3-methanesulphonylamino-2-methoxy-phenyl)-4-chloro-3-[2-(1-methyl-piperidin-4-ylmethyl)-pyridin-4-yloxy]-benzamide]",99.5
8,"COc1c(NC(=O)c2ccc(C)c(Oc3ccnc(CN4CCN(C)CC4)n3)c2)cc(C(C)(C)C)cc1[S+](C)[O-] (stereo not drawn) [13(1), N-(5-tert-butyl-3-methanesulphinyl-2-methoxy-phenyl)-4-methyl-3-[2-(4-methyl-piperazin-1-ylmethyl)-pyrimidin-4-yloxy]-benzamide]",97
9,"COc1c(NC(=O)c2cc(C)cc(Oc3ccncc3)c2)cc(C(C)(C)C)cc1NS(C)(=O)=O [Example 6, N-(5-tert-butyl-3-methanesulphonylamino-2-methoxy-phenyl)-3-methyl-5-(pyridin-4-yloxy)-benzamide]",94.4
10,"COc1c(NC(=O)c2ccc(Cl)c(Oc3ccnc(NC4CCN(C)CC4)c3)c2)cc(C(C)(C)C)cc1NS(C)(=O)=O [Example 10, N-(5-tert-butyl-3-methanesulphonylamino-2-methoxy-phenyl)-4-chloro-3-[2-(1-methyl-piperidin-4-ylamino)-pyridin-4-yloxy]-benzamide]",99.6
11,"COc1c(CO)cc(C(C)(C)C)cc1NC(=O)c1ccc(C)c(Oc2ccnc(CN3CCN(C)CC3)n2)c1 [Example 13, N-(5-tert-butyl-3-hydroxymethyl-2-methoxy-phenyl)-4-methyl-3-[2-(4-methyl-piperazin-1-ylmethyl)-pyrimidin-4-yloxy]-benzamide]",98.2
